# Source: patent US6558900B2, “Regulation of apoptosis and in vitro model for studies thereof” (Emory University, priority 1996, dated 2003)
# Test system: CPP32
# Experiment: Apaf-2 activity: recombining with phosphocellulose flow through fraction (Apaf-1) and 35S-labeled CPP32
# Type: biochemical, human
# Details: phosphocellulose fraction alone, with or without 1 mM dATP
# Experimental: FIG. 3 illustrates fractionation and reconstitution of dATP-dependent activation of CPP32 by phosphocellulose chromatography. HeLa cell S-100 was subjected to phosphocellulose chromatography and the column flow through and bound material were collected as described in the Examples. Aliquots (10 μl) of HeLa S-100 (50 μg) (lanes 1 and 2), phosphocellulose flow through fraction (PC-FT) (lanes 3 and 4), phosphocellulose bound fraction (PC-B) (lanes 5 and 6), and the mixture of phosphocellulose flow through and bound material (lanes 7 and 8) were incubated with aliquots of 3 μl in vitro translated, ^35S-labeled CPP32 at 30° C. for 1 hr in the absence (lanes 1,3,5,7) or presence (lanes 2,4,6,8) of 1 mM dATP. The samples were subjected to SDS-PAGE, transferred to a nitrocellulose filter, and the filter was exposed to film for 16 hours at room temperature.
# The Apaf-2 activity that bound to the phosphocellulose column was purified through the Mono S column as described in Example 7. […] In FIG. 4B, aliquots (30 μl) of the Mono-S fractions were subjected to 15% SDS-PAGE and the proteins were visualized by silver staining.
# Aliquots of 0.2 μg of Apaf-2 purified through the Mono S column (lanes 1, 2), cytochrome c from bovine heart (lanes 3, 4), and rat liver (lanes 5, 6) were incubated with aliquots of 10 μl phosphocellulose flowthrough fraction and 3 μl in vitro translated, 35S-labeled CPP32 at 30° C. for 1 hr in a final volume of 20 μl buffer A in the absence (lanes 1,3,5) or presence of (lanes 2, 4, 6) 1 mM dATP. Samples were subjected to SDS-PAGE and transferred to a nitrocellulose filter which was then exposed to a film for 16 hr at room temperature.
# To isolate the protein(s) required for the activation of CPP32, HeLa S-100 was loaded onto a phosphocellulose column, and the flow-through and bound fractions were collected. […] When the flowthrough and bound fractions were mixed, CPP32-activating activity was restored (lanes 7-8). […] The factor(s) that flow through the phosphocellulose column are designated apoptotic protease activating factor-1 (Apaf-1) and the factor that bound to the column is designated apoptotic protease activating factor-2 (Apaf-2). It is understood that “Apaf-1” may represent more than one protein or it may represent a combination of protein(s) and other factors.
# Apaf-2 activity was assayed by recombining with Apaf-1 after purification by the following steps. First, the Apaf-2 fraction was subjected to 50% ammonium sulfate precipitation. All of the activity remained in the supernatant while most of the protein precipitated (Table I). The supernatant was loaded onto a phenyl-sepharose (hydrophobic interaction) column and the activity was eluted with 1 M ammonium sulfate. The eluate was passed through a gel filtration column; active fractions were subjected to sequential Mono Q (anion exchange) and Mono S (cation exchange) chromatography. The Apaf-2 activity flowed through the Mono Q column, and the flow through was directly loaded onto the Mono S column. Bound Apaf-2 activity was then eluted with a 100-300 mM NaCl linear salt gradient. The fractions from the Mono S column were collected and assayed. […] The active fractions were analyzed by SDS-PAGE (FIG. 4B). A protein of apparent molecular mass of 15 kDa was co-eluted with the activity. No other proteins were detected by silver staining in the active Apaf-2 fractions.
# CPP32 was translated and purified as described above. […]
substance,measurement,value
"Apaf-2: 15 kDa factor bound to phosphocellulose column, purified from HeLa S-100, identified as human cytochrome c",dATP-dependent activation of CPP32 by fraction alone,Neither fraction alone supported dATP-dependent activation of CPP32
